Measured values reported in BigSolDB 2.1.

O=S(=O)(c1ccc(O)cc1)c1ccccc1O
solubility (mole fraction)
Conditions	in 1,4-dioxane	in 2-butanone	in acetone	in acetonitrile	in ethanol	in ethyl acetate	in isopropanol	in methanol	in n-butanol
278.15 K	0.0184	0.101	0.106	0.00974	0.0655	0.0386	0.0656	0.0569	0.0571
280.65 K	0.0213	0.103	0.108	0.0109	0.0672	0.0402	0.068	0.0583	0.0584
283.15 K	0.0242	0.105	0.11	0.0121	0.0689	0.0415	0.0708	0.0597	0.0597
285.65 K	0.0272	0.107	0.112	0.0132	0.0706	0.0432	0.074	0.0612	0.0609
288.15 K	0.0303	0.109	0.115	0.0144	0.0725	0.0449	0.0767	0.0627	0.0621
290.65 K	0.0338	0.111	0.117	0.0156	0.0746	0.0465	0.0798	0.0643	0.0634
293.15 K	0.0376	0.113	0.12	0.0169	0.0766	0.0482	0.0825	0.0661	0.0645
295.65 K	0.0415	0.115	0.124	0.0179	0.0785	0.0501	0.0857	0.0677	0.0658
298.15 K	0.0465	0.118	0.127	0.0192	0.0805	0.052	0.089	0.0696	0.0671
300.65 K	0.0514	0.12	0.13	0.0204	0.0827	0.054	0.0925	0.0716	0.0682
303.15 K	0.0557	0.122	0.133	0.0219	0.085	0.0562	0.0963	0.0739	0.0694
305.65 K	0.0611	0.125	0.136	0.0236	0.0872	0.0585	0.1	0.0763	0.0707
308.15 K	0.0664	0.127	0.139	0.0252	0.0898	0.0609	0.104	0.0786	0.0719
310.65 K	0.0713	0.13	0.142	0.0271	0.0928	0.0637	0.109	0.0809	0.0734
313.15 K	0.077	0.134	0.146	0.0295	0.0957	0.0669	0.113	0.0838	0.0751
